Data on 23 compounds can be found in patent US8853230B2, “Inhibitors of JAK” (Portola Pharmaceuticals, Inc., priority 2009, dated 2014).

Common to all, as to type: biochemical
Test [1] deals with T1, JAK1 (Homo sapiens, UniProt P23458).
T1 construct: 5 μl of catalytic domain recombinant Kinase enzyme+Tyr peptide substrate (Invitrogen, Calif.); purchased Invitrogen
In words: Z'-LYTE kinase assay, JAK1 tyrosine phosphorylation activity. The note with it: read-out: JAK 1 IC50. In short, it runs like this:
(§1)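 Catalytic-domain recombinant enzymes phosphorylate a coumarin/fluorescein-labelled Tyr6 peptide for 1 h at room temperature in the presence of ATP and compound (1% DMSO). Development Reagent then cleaves non-phosphorylated peptide over 1 h, and emission ratio 445/520 nm (ex 400 nm) gives percent phosphorylation; IC50 by 4-parameter logistic model.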

In test [2] the target is T2, JAK2 (Homo sapiens, UniProt O60674).
T2 construct: 5 μl of catalytic domain recombinant Kinase enzyme+Tyr peptide substrate (Invitrogen, Calif.); purchased Invitrogen
Briefly: Z'-LYTE kinase assay, JAK2 tyrosine phosphorylation activity. The gist of the method:
as §1

Test [3] has as its target T3, JAK3 (Homo sapiens, UniProt P52333).
T3 construct: 5 μl of catalytic domain recombinant Kinase enzyme+Tyr peptide substrate (Invitrogen, Calif.); purchased Invitrogen
Briefly: Z'-LYTE kinase assay, JAK3 tyrosine phosphorylation activity. In short, it runs like this:
as §1

Test [4] has as its target T4, TYK2 (Homo sapiens, UniProt P29597).
T4 construct: 5 μl of catalytic domain recombinant Kinase enzyme+Tyr peptide substrate (Invitrogen, Calif.); purchased Invitrogen
T4 sequence (P29597 897-1176 limits assumed): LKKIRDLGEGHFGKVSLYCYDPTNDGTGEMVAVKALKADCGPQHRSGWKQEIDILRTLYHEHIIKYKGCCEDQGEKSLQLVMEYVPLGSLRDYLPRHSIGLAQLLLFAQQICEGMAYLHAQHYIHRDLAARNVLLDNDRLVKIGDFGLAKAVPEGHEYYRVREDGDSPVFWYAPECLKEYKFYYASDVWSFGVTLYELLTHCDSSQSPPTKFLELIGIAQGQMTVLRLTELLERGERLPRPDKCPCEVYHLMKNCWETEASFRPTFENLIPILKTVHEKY
Briefly: Z'-LYTE kinase assay, TYK2 tyrosine phosphorylation activity. The gist of the method: as §1

Bounds are passed on as bounds.

T3 sequence (P52333 822-1111 limits assumed): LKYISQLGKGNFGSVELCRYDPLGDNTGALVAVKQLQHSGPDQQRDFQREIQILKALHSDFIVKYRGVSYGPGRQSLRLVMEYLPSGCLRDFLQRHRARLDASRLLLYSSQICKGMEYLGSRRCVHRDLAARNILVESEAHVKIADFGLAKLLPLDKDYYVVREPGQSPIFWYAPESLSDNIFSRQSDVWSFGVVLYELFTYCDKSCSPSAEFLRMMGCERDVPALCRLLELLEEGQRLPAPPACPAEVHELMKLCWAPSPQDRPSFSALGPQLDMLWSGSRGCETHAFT
T2 sequence (O60674 849-1124 limits assumed): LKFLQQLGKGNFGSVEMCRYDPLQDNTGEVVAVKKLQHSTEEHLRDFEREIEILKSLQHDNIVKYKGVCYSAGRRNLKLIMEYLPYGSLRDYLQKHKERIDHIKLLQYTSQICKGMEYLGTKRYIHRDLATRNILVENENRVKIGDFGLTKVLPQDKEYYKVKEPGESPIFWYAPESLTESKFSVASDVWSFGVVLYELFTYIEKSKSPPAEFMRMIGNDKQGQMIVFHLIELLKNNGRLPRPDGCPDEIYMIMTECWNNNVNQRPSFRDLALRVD
T1 sequence (P23458 875-1153 limits assumed): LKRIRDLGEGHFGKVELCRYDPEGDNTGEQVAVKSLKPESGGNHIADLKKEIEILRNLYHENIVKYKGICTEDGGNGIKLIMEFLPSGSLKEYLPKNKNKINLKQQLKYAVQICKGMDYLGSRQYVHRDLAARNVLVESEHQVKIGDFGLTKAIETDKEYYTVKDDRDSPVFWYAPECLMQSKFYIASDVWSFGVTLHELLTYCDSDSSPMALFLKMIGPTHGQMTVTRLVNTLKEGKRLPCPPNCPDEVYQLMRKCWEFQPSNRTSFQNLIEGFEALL

For the compound `CNc1nc(Nc2cccc(NC(=O)N3CCCC3)c2)ncc1C(N)=O` [Example 133, 4-(methylamino)-2-(3-(pyrrolidine-1-carboxamido)phenylamino)pyrimidine-5-carboxamide], the IC50 is 100 to 1000 nM in test [1], 100 to 1000 nM in test [2], 10 to 100 nM in test [3] and 10 to 100 nM in test [4].

With `CC(=O)Nc1cc(Nc2ncc(C(N)=O)c(Nc3cccc4nsnc34)n2)ccc1OCCCN1CCCCC1` [Example 243], the IC50 in test [1] was in the range of 10 to 100 nM; in test [2], 1 to 10 nM; in test [3] it was 1 to 10 nM; in test [4] it was 1 to 10 nM.

`CC(=O)Nc1cccc(Nc2cc(NC3Cc4ccccc4C3)c(C(N)=O)cn2)c1` [Example 333, 6-(3-acetamidophenylamino)-4-(2,3-dihydro-1H-inden-2-ylamino)nicotinamide]: the IC50 in test [1] is greater than 1000 nM; in test [2], greater than 1000 nM; in test [3] it was 100 to 1000 nM; in test [4], 100 to 1000 nM.

As for `CC(=O)Nc1cc(Cl)cc(Nc2ncc(C(N)=O)c(NCc3ccccc3)n2)c1` [Example 260, 2-(3-acetamido-5-chlorophenylamino)-4-(benzylamino)pyrimidine-5-carboxamide], the IC50 in test [1] is greater than 1000 nM; in test [2], 100 to 1000 nM; in test [3], 10 to 100 nM; in test [4] it was 10 to 100 nM.

For `CC(=O)Nc1cccc(Nc2ncc(C(N)=O)c(NCc3cccnc3)n2)c1` [Example 188, 2-(3-acetamidophenylamino)-4-(pyridin-3-ylmethylamino)pyrimidine-5-carboxamide], the IC50 in test [1] lay within 100 to 1000 nM; in test [2], 10 to 100 nM; in test [3] it was 1 to 10 nM; in test [4], 10 to 100 nM.

Consider `C[C@@H]1CCCN1C(=O)Nc1cccc(Nc2ncc(C(N)=O)c(N[C@H](C)c3ccccc3)n2)c1` [Example 148, 2-(3-((R)-2-methylpyrrolidine-1-carboxamido)phenylamino)-4-((R)-1-phenylethylamino)pyrimidine-5-carboxamide], for which the IC50 lay in the range of 100 to 1000 nM in test [1], 10 to 100 nM in test [2], 1 to 10 nM in test [3] and 10 to 100 nM in test [4].

Regarding `C[C@@H](Nc1nc(Nc2cccc(NC(=O)N3CCCC3)c2)ncc1C(N)=O)c1ccccc1` [Example 105, (R)-4-(1-phenylethylamino)-2-(3-(pyrrolidine-1-carboxamido)phenylamino)pyrimidine-5-carboxamide], the IC50 lay in the range of 100 to 1000 nM in test [1], 10 to 100 nM in test [2], 1 to 10 nM in test [3] and 10 to 100 nM in test [4].

As to `NC(=O)c1cnc(Nc2cccc(NC(=O)[C@@H]3CCCO3)c2)nc1NCc1ccccc1` [Example 206, (S)-4-(benzylamino)-2-(3-(tetrahydrofuran-2-carboxamido)phenylamino)pyrimidine-5-carboxamide], the IC50 in test [1] fell in the range of 10 to 100 nM; in test [2] it was 10 to 100 nM; in test [3] it was 1 to 10 nM; in test [4] it was 1 to 10 nM.

For `COCC(=O)Nc1cc(Nc2ncc(C(N)=O)c(N[C@H](C)c3ccccc3)n2)ccc1Cl` [Example 109, (R)-2-(4-chloro-3-(2-methoxyacetamido)phenylamino)-4-(1-phenylethylamino)pyrimidine-5-carboxamide], the IC50 in test [1] was in the range of 100 to 1000 nM; in test [2] it was 100 to 1000 nM; in test [3] it was 10 to 100 nM; in test [4] it was 100 to 1000 nM.

As for `CC(=O)Nc1cc(Nc2ncc(C(N)=O)c(Nc3cccc4nn(C)cc34)n2)ccc1OCCN1CCCC1` [Example 224, 2-(3-acetamido-4-(2-(pyrrolidin-1-yl)ethoxy)phenylamino)-4-(2-methyl-2H-indazol-4-ylamino)pyrimidine-5-carboxamide], the IC50 lay within 100 to 1000 nM in test [1], 10 to 100 nM in test [2], 10 to 100 nM in test [3] and 100 to 1000 nM in test [4].

`CC(=O)Nc1cccc(Nc2ncc(C(N)=O)c(N[C@H](C)C(N)=O)n2)c1` [Example 91, (R)-2-(3-acetamidophenylamino)-4-(1-amino-1-oxopropan-2-ylamino)pyrimidine-5-carboxamide]: the IC50 in test [1], in test [2], in test [3] and in test [4] was 10 to 100 nM in each case.

On to `CC(=O)Nc1cccc(Nc2ncc(C(N)=O)c(Nc3cccc4c3ccn4C)n2)c1` [Example 184, 2-(3-acetamidophenylamino)-4-(1-methyl-1H-indol-4-ylamino)pyrimidine-5-carboxamide], for which the half-inhibitory concentration (IC50) in test [1], in test [2], in test [3] and in test [4] was 1 to 10 nM in each case.

In the case of `CC(=O)Nc1cccc(Nc2ncc(C(N)=O)c(NCc3cccc(Cl)c3)n2)c1` [Example 101, 2-(3-acetamidophenylamino)-4-(3-chlorobenzylamino)pyrimidine-5-carboxamide], the concentration for half-maximal inhibition (IC50) lay within 10 to 100 nM in test [1], 1 to 10 nM in test [2], 1 to 10 nM in test [3] and 10 to 100 nM in test [4].

Regarding `C[C@@H](Nc1nc(Nc2cccc(NC(=O)N3CCN(C)CC3)c2)ncc1C(N)=O)c1ccccc1` [Example 254, (R)-2-(3-(4-methylpiperazine-1-carboxamido)phenylamino)-4-(1-phenylethylamino)pyrimidine-5-carboxamide], the IC50 in test [1] lay in the range of 10 to 100 nM; in test [2], 1 to 10 nM; in test [3], 1 to 10 nM; in test [4], 10 to 100 nM.

With `NC(=O)c1cnc(Nc2ccc(Cl)c(NC(=O)NC3CCC3)c2)nc1NCc1ccccc1` [Example 107, 4-(benzylamino)-2-(4-chloro-3-(3-cyclobutylureido)phenylamino)pyrimidine-5-carboxamide], the IC50 in test [1] is greater than 1000 nM; in test [2], greater than 1000 nM; in test [3], 100 to 1000 nM; in test [4], 100 to 1000 nM.

Regarding `NC(=O)c1cnc(Nc2cccc(NC(=O)N3CCCC3)c2)nc1NCC(F)(F)F` [Example 136, 2-(3-(pyrrolidine-1-carboxamido)phenylamino)-4-(2,2,2-trifluoroethylamino)pyrimidine-5-carboxamide], the IC50 in test [1], in test [2], in test [3] and in test [4] was 10 to 100 nM in each case.

On to `CC(=O)Nc1cc(Nc2ncc(C(N)=O)c(Nc3cccc4c3cnn4C)n2)ccc1OCCN1CCCC1` [Example 256, 2-(3-acetamido-4-(2-(pyrrolidin-1-yl)ethoxy)phenylamino)-4-(1-methyl-1H-indazol-4-ylamino)pyrimidine-5-carboxamide], for which the 50% inhibitory concentration (IC50) fell in the range of 10 to 100 nM in test [1], 1 to 10 nM in test [2], 1 to 10 nM in test [3] and 10 to 100 nM in test [4].

On to `CC(=O)Nc1cccc(Nc2ncc(C(N)=O)c(Nc3cccc4nn(C)cc34)n2)c1` [Example 186, 2-(3-acetamidophenylamino)-4-(2-methyl-2H-indazol-4-ylamino)pyrimidine-5-carboxamide], for which the IC50 in test [1] is greater than 1000 nM; in test [2], 10 to 100 nM; in test [3] it was 10 to 100 nM; in test [4] it was greater than 1000 nM.

As for `COc1ccc(Nc2ncc(C(N)=O)c(NCc3ccccc3)n2)cc1N(C)C(=O)N1CCCC1` [Example 239, 4-(benzylamino)-2-(4-methoxy-3-(N-methylpyrrolidine-1-carboxamido)phenylamino)pyrimidine-5-carboxamide], the IC50 in test [1] lay in the range of 100 to 1000 nM; in test [2] it was 10 to 100 nM; in test [3] it was 10 to 100 nM; in test [4], 10 to 100 nM.

For the compound `NC(=O)c1cnc(Nc2ccc(Cl)c(NC(=O)N3CCCC3)c2)nc1NCc1cccc(Cl)c1` [Example 173, 2-(4-chloro-3-(pyrrolidine-1-carboxamido)phenylamino)-4-(3-chlorobenzylamino)pyrimidine-5-carboxamide], the IC50 was greater than 1000 nM in test [1], 100 to 1000 nM in test [2], 10 to 100 nM in test [3] and 100 to 1000 nM in test [4].

For the compound `CC(=O)Nc1cc(Nc2ncc(C(N)=O)c(NCc3cccc(F)c3)n2)ccc1OCCN(C)C` [Example 228, 2-(3-acetamido-4-(2-(dimethylamino)ethoxy)phenylamino)-4-(3-fluorobenzylamino)pyrimidine-5-carboxamide], the IC50 in test [1] lay in the range of 100 to 1000 nM; in test [2], 10 to 100 nM; in test [3], 1 to 10 nM; in test [4], 10 to 100 nM.

For the compound `CC(=O)Nc1cccc(Nc2cc(NCCC(C)C)c(C(N)=O)cn2)c1` [Example 327, 6-(3-acetamidophenylamino)-4-(isopentylamino)nicotinamide], the half-maximal inhibitory concentration (IC50) is 100 to 1000 nM in test [1], 100 to 1000 nM in test [2], 10 to 100 nM in test [3] and 10 to 100 nM in test [4].

In the case of `CC(=O)N(C)c1cccc(Nc2ncc(C(N)=O)c(NCC3CC3)n2)c1` [Example 126, 4-(cyclopropylmethylamino)-2-(3-(N-methylacetamido)phenylamino)pyrimidine-5-carboxamide], the IC50 in test [1], in test [2], in test [3] and in test [4] was 10 to 100 nM throughout.
